Patent US20090137643A1, “Methods for Inhibiting or Reversing Tau Filament Fibrillization” (priority 2003, published 2009)
“And” between values parts separate entries of the source, which are not always exact repeats. Identical values can stand only once. “Also recorded” adds a separate entry of the source. Like-named read-outs stand apart in the source and are kept apart here.

Tests used:
Format in all cases: biochemical
[1] = biological target: T1, htau40 (Homo sapiens, UniProt P10636); experiment: Tau aggregation: arachidonic acid-induced htau40 fibrillization, quantitative transmission electron microscopy; set-up: IC50 for inhibition of tau fibrillization relative to molar concentration of arachidonic acid: unit not given here; conditions: for filament length distribution versus DMSO vehicle control: 3 hours at 37° C.; for IC50: N744 0.12-4.1 μM
T1 construct: polyhistidine; made in house
Protocol: Tau Aggregation. Purified recombinant htau40 was polymerized as described previously (King et al., Biochemistry 38: 14851-14859 (1999); Wilson et al., Am. J. Pathol 150: 2181-2195 (1997); King et al., J. Neurochem 74: 1749-1757 (2000)). Under standard conditions, 4 μM (final concentration) htau40 was incubated with arachidonic acid in Assembly Buffer (10 mM 4-[2-hydroxyethyl]-1-piperazineethanesulfonic acid, 100 mM NaCl, and 5 mM DTT) at either room temperature or at 37° C. Fibrillization was induced by the addition of arachidonic acid (75-100 μM) and continued for 3 to 6 hours until analyzed by electron microscopy as described below. When present, N744 final concentration varied between 0.12 and 4.1 μM in aggregation assays. (N744 final concentration of up to 4.7 μM was used in disaggregation assays (see below)). Control reactions were normalized for DMSO vehicle, which was limited to no more than 5% (v/v) in all reactions.
(§1) Transmission Electron Microscopy. Aliquots (50 μl) of aggregation and disaggregation reactions were removed, fixed with glutaraldehyde (2%), and adsorbed (1 minute) onto 300 mesh formvar/carbon-coated copper grids (Electron Microscopy Sciences; Ft. Washington, Pa.). The resultant grids were washed with water, stained (1 minute) with 2% uranyl acetate (Electron Microscopy Sciences), washed again with water, blotted dry, and viewed in a Phillips CM 12 microscope operated at 65 kV. Three to five random images from each experimental condition were captured on film at 22,000× magnification, digitized, calibrated, and imported into Optimas 6.5.1 for quantitation of filament length and number as described previously (King et al., J. Neurochem 74: 1749-1757 (2000). An individual filament is defined as any object greater than 50 nm in its long axis. Filaments were counted manually. Filament counts are reported as an average±standard deviation for both total filament length and total filament number. Length distributions were quantified in 25 nm (assembly) or 50 nm (disassembly) wide bins.

[2] = biological target: T2, amylin (Homo sapiens, UniProt P10997); experiment: Amylin aggregation, qualitative electron microscopy; conditions: amylin 50 μM, 4.1 μM N744, 24 hour period
T2 construct: purchased Bachem
T2 sequence (P10997 34-70 limits assumed): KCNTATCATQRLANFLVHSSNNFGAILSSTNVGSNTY
Protocol: Amylin Aggregation. Aggregation was initiated by diluting the peptide in 10 mM Tris-HCl, pH 7.3 to a final concentration of 50 μM (Goldsbury et al., J. Struct. Biol. 130: 352-362 (2000)) in the presence or absence of 4.1 μM N744. Aliquots were removed after 0, 1, 3, 5, 7, and 24 hours and prepared for EM as described above.
The activity of N744 on another amyloid-forming protein, amylin (Goldsbury et al., J. Struct. Biol. 130: 352-362 (2000)), was also examined.

[3] = biological target: T3, htau40 filaments (Homo sapiens, UniProt P10636); experiment: Tau disaggregation: preformed htau40 filaments, quantitative electron microscopy
T3 construct: polyhistidine; made in house
Protocol: Tau Disaggregation. Solutions of purified htau40 (4 μM) were polymerized under standard conditions as described above for 3.5 hours, then divided into two separate tubes. One tube received N744 at a final concentration of 4.7 μM, whereas the second tube received DMSO vehicle alone. Aliquots were removed from each sample after 0, 1, 3, 5, 9, 12, and 19 hours incubation and subjected to the electron microscopy assay described below. Control (no N744) reactions were normalized for DMSO vehicle, which was kept below 5.7% (v/v) in all reactions.
as §1
N744 Promotes tau Filament Disaggregation. […] To test this hypothesis, htau40 (4 μM) was polymerized with arachidonic acid (75 μM) over a 3.5 hour period after which time equal aliquots were treated with N744 (4.7 μM) or DMSO vehicle alone and filament numbers and lengths were measured over a 19 hour “chase” by electron microscopy. In the absence of N744, total htau40 filament length decreased 23±4% over this time period (FIG. 4). Because sample dilution was only 6% in the experimental paradigm, it appeared that DMSO alone destabilized tau filaments at these concentrations. In contrast, addition of N744 (4.7 μM) led to a more rapid decrease in total filament length so that 87±13% of total filament length was lost over the 19 hour time course. The initial rate of filament loss was well modeled as a first order decay (r^2=0.981; k=0.12±0.01 h^−1) under these conditions (FIG. 4).

[4] = biological target: T4, Aβ1-40 (Homo sapiens, UniProt P05067); experiment: Aβ1-40 aggregation, turbidity at 400 nm; conditions: Aβ1-40 20 μM, 4.1 μM N744, 5 hours
T4 construct: Human Aβ1-40 (Bachem; Philadelphia, Pa.); purchased Bachem
Protocol: Aβ1-40 Aggregation. Aggregation was initiated by diluting the Aβ stock solution to 20 μM final concentration in aggregation buffer (150 mM NaCl, 10 mM 2-[N-morpholino]ethanesulfonic acid, pH 6.2; final volume 300 μl). Turbidity resulting from Aβ aggregation in the presence (4.1 μM final concentration) and absence of […] was monitored as a function of time in a Beckman DU640B spectrophotometer at 400 nm versus a DMSO vehicle blank (Snyder et al., Biophys 67: 1216-1228 (1994); Evans et al., Proc. Natl. Acad. Sci U.S.A. 92: 763-767 (1995)). Cuvettes were vortexed before each reading. […] Selectivity of tau Fibrillization Antagonism. […] To determine whether amyloid binding was accompanied by fibrillization inhibitory activity, the ability of […] to inhibit Aβ1-40 assembly was examined. In the absence of ligand, Aβ1-40 (20 μM) polymerized spontaneously after a lag of about 80 minutes.

[5] = htau40 4 μM, arachidonic acid 75 μM, 3.5 hours at 37° C.

T1 sequence (P10636 1-441 isoform P10636-8): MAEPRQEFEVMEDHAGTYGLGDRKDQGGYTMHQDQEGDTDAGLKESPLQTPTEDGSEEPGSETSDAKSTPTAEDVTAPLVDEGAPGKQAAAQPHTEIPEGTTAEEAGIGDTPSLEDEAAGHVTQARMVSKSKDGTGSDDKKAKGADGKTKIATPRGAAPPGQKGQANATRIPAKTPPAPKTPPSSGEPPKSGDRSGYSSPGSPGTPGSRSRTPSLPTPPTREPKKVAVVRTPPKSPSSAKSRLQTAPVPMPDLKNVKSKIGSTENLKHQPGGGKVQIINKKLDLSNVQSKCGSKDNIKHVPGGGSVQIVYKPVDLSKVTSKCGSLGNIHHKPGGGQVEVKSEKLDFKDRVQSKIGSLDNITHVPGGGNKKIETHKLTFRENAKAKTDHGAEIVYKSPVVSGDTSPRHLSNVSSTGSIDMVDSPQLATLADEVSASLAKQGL
T3 sequence (P10636 1-441 isoform P10636-8): as above
T4 sequence (P05067 672-711 limits assumed): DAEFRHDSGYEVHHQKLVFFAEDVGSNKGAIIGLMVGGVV

SMILES: CCC(/C=C1\Sc2ccc(OC)cc2N1CCO)=C\c1sc2ccc(OC)cc2[n+]1CCO [N744, 3-(2-hydroxyethyl)-2-[2-[[3-(2-hydroxyethyl)-5-methoxy-2-benzothiazolylidene]methyl]-1-butenyl]-5-methoxybenzothiazolium]
- IC50 for inhibition of tau fibrillization relative to molar concentration of arachidonic acid [1]: < 0.01
- tau fibrillization (total number or total length of filaments) ([1]; 4.1 μM N744, about 1:1 with htau40 4 μM, arachidonic acid 75 μM): greatly inhibited
- filament length distribution versus DMSO vehicle control ([1]; N744 ≧1.2 μM, htau40 4 μM): significant shortening
- Hill slope, total filament length [1, 5]: 1.84±0.14
- Hill slope, total filament number [1, 5]: 1.61±0.10
- IC50 ([1]; htau40 4 μM, arachidonic acid 75 μM, 3.5 hours at 37° C., read-out: IC50, inhibition of total filament length): 294 nM and < 300 nM and ~300 nM
- IC50 ([1]; htau40 4 μM, arachidonic acid 75 μM, 3.5 hours at 37° C., read-out: IC50, inhibition of total filament number): 272 ± 17 nM
- filament length distribution versus DMSO vehicle control ([1]; low N744 concentrations (≦410 nM), htau40 4 μM): did not differ significantly
- effect on amylin fibrillization [2]: did not interfere; also recorded: did not modulate
- net first order rate of filament loss, corrected for dilution and DMSO vehicle ([3]; 4.7 μM N744, htau40 4 μM): 0.10 ± 0.02 h⁻¹
- initial first order rate of decrease of total filament length ([3]; 4.7 μM N744 added to filaments from htau40 4 μM, 19 hour chase): 0.12 ± 0.01 h⁻¹
- filament number per length bin relative to DMSO only control ([3]; 19 hours, 4.7 μM N744, 50 nm bins): significantly fewer filaments in every bin
- total filament length as % of vehicle only control ([3]; after 19 hours incubation with 4.7 μM N744): 13±2%
- total filament length lost ([3]; over 19 hour time course, 4.7 μM N744): 87±13%
- effect on Aβ1-40 fibrillization [4]: did not appreciably modulate the extent or half-life; also recorded: little effect
